# US11207320B2, “Compositions and methods for cancer expressing PDE3A or SLFN12” (The Broad Institute, Inc., priority 2015, dated 2021)
# Test system: 766 cancer cell lines
# Test: Large-scale cell-line viability measurements (766 cancer cell lines, 72 h, AUC)
# Type: cell-based, human
# Details: 72 hours
# Method: Cell lines were treated for 72 hours with concentrations ranging from 66.4 μM-2 nM in 2-fold step dilutions.
# To characterize cellular sensitivity to DNMDP further, 766 genomically characterized cancer cell lines were screened for DMNDP sensitivity at concentrations ranging from 66.4 μM to 2 nM in 2-fold dilution steps for 72 hours. From these cell lines, 22 cell lines were categorized as sensitive with a robust Z-score lower than −4, which represented multiple lineages including multiple melanoma cell lines, amongst others (Table 1).
# The sensitivity of […] cancer cell lines (CCLs) was measured drawn from 23 different lineages to DNMDP. Each cell line was plated in its preferred media in white opaque 1536-plates at a density of 500 cells/well. After incubating overnight, DNMDP was added by acoustic transfer at 16 concentrations ranging from 66.4 μM-2 nM in 2-fold steps in duplicate (Labcyte Echo 555, Labcyte Inc., Sunnyvale, Calif.). After 72 hours treatment, cellular ATP levels were measured as a surrogate for viability (CELLTITERGLO®, Promega Corporation, Madison, Wis.) according to manufacturer's protocols using a ViewLux Microplate Imager (PerkinElmer, Waltham, Mass.) and normalized to background (media-only) and vehicle (DMSO)-treated control wells.
# Concentration response curves were fit using nonlinear fits to 2- or 3-parameter sigmoid functions through all 16 concentrations with the low-concentration asymptote set to the DMSO-normalized value, and an optimal 8-point dose curve spanning the range of compound-sensitivity was identified. The area under the 8-point dose curve (AUC) was computed by numeric integration as a metric for sensitivity for further analysis. Similar sensitivity measurements have been obtained for a collection of 480 other compounds, enabling analyses that identify cell lines responding uniquely to DNMDP (see Broad Institute Cancer Therapeutics Response Portal, a dataset to identify comprehensively relationships between genetic and lineage features of human cancer cell lines and small-molecule sensitivities for complete list of compounds).
# [1] = MOLM6 (HAEMATOPOIETIC AND LYMPHOID TISSUE)
# [2] = MOLT13 (HAEMATOPOIETIC AND LYMPHOID TISSUE)
# [3] = MV411 (HAEMATOPOIETIC AND LYMPHOID TISSUE)
# [4] = NALM6 (HAEMATOPOIETIC AND LYMPHOID TISSUE)
# [5] = NB4 (HAEMATOPOIETIC AND LYMPHOID TISSUE)
# [6] = NCO2 (HAEMATOPOIETIC AND LYMPHOID TISSUE)
# [7] = OCIAML2 (HAEMATOPOIETIC AND LYMPHOID TISSUE)
# [8] = OCILY19 (HAEMATOPOIETIC AND LYMPHOID TISSUE)
# [9] = PECAPJ15 (UPPER AERODIGESTIVE TRACT)
# [10] = PF382 (HAEMATOPOIETIC AND LYMPHOID TISSUE)
# [11] = RPMI8402 (HAEMATOPOIETIC AND LYMPHOID TISSUE)
# [12] = SCC4 (UPPER AERODIGESTIVE TRACT)
# [13] = SNU1214 (UPPER AERODIGESTIVE TRACT)
# [14] = U118MG (CENTRAL NERVOUS SYSTEM)
# [15] = U266B1 (HAEMATOPOIETIC AND LYMPHOID TISSUE)
# [16] = U937 (HAEMATOPOIETIC AND LYMPHOID TISSUE)
smiles,measurement,setting,value
"CCN(CC)c1ccc(C2=NNC(=O)CC2C)cc1[N+](=O)[O-] (centres unmarked) [DNMDP, 6-(4-(diethylamino)-3-nitrophenyl)-5-methyl-4,5-dihydropyridazin-3(2H)-one]",Robust Z-score,LU99 (LUNG),−0.8744
same,DNMDP AUC,LXF289 (LUNG),5.734
same,Robust Z-score,LXF289 (LUNG),−0.9454
same,DNMDP AUC,MALME3M (SKIN),6.112
same,Robust Z-score,MALME3M (SKIN),−0.5486
same,DNMDP AUC,MCF7 (BREAST),6.1256
same,Robust Z-score,MCF7 (BREAST),−0.5343
same,DNMDP AUC,MEWO (SKIN),5.738
same,Robust Z-score,MEWO (SKIN),−0.9412
same,DNMDP AUC,MKN7 (STOMACH),6.1453
same,Robust Z-score,MKN7 (STOMACH),−0.5136
same,DNMDP AUC,[1],6.0447
same,Robust Z-score,[1],−0.6192
same,DNMDP AUC,[2],6.084
same,Robust Z-score,[2],−0.578
same,DNMDP AUC,[3],5.6905
same,Robust Z-score,[3],−0.991
same,DNMDP AUC,[4],5.7872
same,Robust Z-score,[4],−0.8895
same,DNMDP AUC,[5],6.219
same,Robust Z-score,[5],−0.4363
same,DNMDP AUC,NCIH23 (LUNG),6.1854
same,Robust Z-score,NCIH23 (LUNG),−0.4716
same,DNMDP AUC,NCIH1184 (LUNG),6.1776
same,Robust Z-score,NCIH1184 (LUNG),−0.4797
same,DNMDP AUC,NCIH1355 (LUNG),6.171
same,Robust Z-score,NCIH1355 (LUNG),−0.4867
same,DNMDP AUC,NCIH1435 (LUNG),5.9756
same,Robust Z-score,NCIH1435 (LUNG),−0.6918
same,DNMDP AUC,NCIH1563 (LUNG),1.0887
same,Robust Z-score,NCIH1563 (LUNG),−5.821
same,DNMDP AUC,NCIH1793 (LUNG),6.2189
same,Robust Z-score,NCIH1793 (LUNG),−0.4364
same,DNMDP AUC,NCIH2009 (LUNG),5.7594
same,Robust Z-score,NCIH2009 (LUNG),−0.9187
same,DNMDP AUC,NCIH2122 (LUNG),1.3105
same,Robust Z-score,NCIH2122 (LUNG),−5.588
same,DNMDP AUC,NCIH2141 (LUNG),5.7218
same,Robust Z-score,NCIH2141 (LUNG),−0.9582
same,DNMDP AUC,[6],5.7088
same,Robust Z-score,[6],−0.9718
same,DNMDP AUC,[7],5.8945
same,Robust Z-score,[7],−0.7769
same,DNMDP AUC,[8],6.1512
same,Robust Z-score,[8],−0.5075
same,DNMDP AUC,ONCODG1 (OVARY),5.8296
same,Robust Z-score,ONCODG1 (OVARY),−0.845
same,DNMDP AUC,PC14 (LUNG),6.2003
same,Robust Z-score,PC14 (LUNG),−0.4559
same,DNMDP AUC,[9],5.789
same,Robust Z-score,[9],−0.8876
same,DNMDP AUC,[10],5.8519
same,Robust Z-score,[10],−0.8216
same,DNMDP AUC,RERFLCAD1 (LUNG),6.1862
same,Robust Z-score,RERFLCAD1 (LUNG),−0.4707
same,DNMDP AUC,RKN (SOFT TISSUE),6.1579
same,Robust Z-score,RKN (SOFT TISSUE),−0.5004
same,DNMDP AUC,[11],5.9827
same,Robust Z-score,[11],−0.6843
same,DNMDP AUC,RVH421 (SKIN),1.4556
same,Robust Z-score,RVH421 (SKIN),−5.436
same,DNMDP AUC,[12],6.0502
same,Robust Z-score,[12],−0.6135
same,DNMDP AUC,SKCO1 (LARGE INTESTINE),5.688
same,Robust Z-score,SKCO1 (LARGE INTESTINE),−0.9936
same,DNMDP AUC,SKLU1 (LUNG),6.0109
same,Robust Z-score,SKLU1 (LUNG),−0.6547
same,DNMDP AUC,SKMEL3 (SKIN),1.2215
same,Robust Z-score,SKMEL3 (SKIN),−5.682
same,DNMDP AUC,SKMEL5 (SKIN),5.9639
same,Robust Z-score,SKMEL5 (SKIN),−0.7041
same,DNMDP AUC,SKNBE2 (AUTONOMIC GANGLIA),5.7717
same,Robust Z-score,SKNBE2 (AUTONOMIC GANGLIA),−0.9058
same,DNMDP AUC,SKNSH (AUTONOMIC GANGLIA),5.8424
same,Robust Z-score,SKNSH (AUTONOMIC GANGLIA),−0.8316
same,DNMDP AUC,SNU119 (OVARY),6.1473
same,Robust Z-score,SNU119 (OVARY),−0.5115
same,DNMDP AUC,SNU620 (STOMACH),6.1039
same,Robust Z-score,SNU620 (STOMACH),−0.5571
same,DNMDP AUC,SNU869 (BILIARY TRACT),5.7543
same,Robust Z-score,SNU869 (BILIARY TRACT),−0.9241
same,DNMDP AUC,[13],6.2071
same,Robust Z-score,[13],−0.4488
same,DNMDP AUC,SNU1272 (KIDNEY),6.0226
same,Robust Z-score,SNU1272 (KIDNEY),−0.6424
same,DNMDP AUC,SUIT2 (PANCREAS),5.8956
same,Robust Z-score,SUIT2 (PANCREAS),−0.7757
same,DNMDP AUC,T3M10 (LUNG),6.1867
same,Robust Z-score,T3M10 (LUNG),−0.4702
same,DNMDP AUC,TE8 (OESOPHAGUS),6.2119
same,Robust Z-score,TE8 (OESOPHAGUS),−0.4437
same,DNMDP AUC,TE125T (SOFT TISSUE),5.744
same,Robust Z-score,TE125T (SOFT TISSUE),−0.9349
same,DNMDP AUC,TUHR14TKB (KIDNEY),5.8451
same,Robust Z-score,TUHR14TKB (KIDNEY),−0.8287
same,DNMDP AUC,[14],6.1481
same,Robust Z-score,[14],−0.5107
same,DNMDP AUC,[15],6.1906
same,Robust Z-score,[15],−0.4661
same,DNMDP AUC,[16],6.1777
same,Robust Z-score,[16],−0.4796
